Key:
PRMT5 [1] = biological target: T1, PRMT5 (Homo sapiens, UniProt O14744); assay: PRMT5 biochemical IC50 assay with no cofactor; conditions: PRMT5, no cofactor; read-out: No Cofactor/rel IC50
T1 construct: purchased Viva (custom protein)
Excerpt: Table 1 indicates IC50 values (μM) against PRMT5 for exemplary compounds in the presence of SAM as cofactor, with no cofactor, and with MTA as cofactor, respectively (columns 4-6). […] Ki values can be calculated from the IC50 values as described in the Examples section. As detailed in the Examples section, for the assay performed in the presence of SAM, IC50=Ki×1.5 (Ki=IC50/1.5).

PRMT5 [2] = biological target: T1, PRMT5; assay: PRMT5 biochemical IC50 assay with MTA as cofactor; conditions: PRMT5, MTA as cofactor; read-out: MTA IC50
[3] = system: HAP1 MTAP-intact cell line; assay: SDMA in-cell western assay, HAP1 MTAP-intact; assay type: cell-based; conditions: Homo sapiens, HAP1, SDMA in-cell western, HAP1 MTAP-intact; read-out: MTAP HAP1 intact IC50
Method in brief: (§1)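 IC50 values come from SDMA signal quantified by in-cell western in two HAP1 lines, one with native MTAP levels and one lacking MTAP.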

PRMT5 [4] = biological target: T1, PRMT5; assay: PRMT5 biochemical IC50 assay with SAM as cofactor; conditions: PRMT5, SAM as cofactor; read-out: SAM IC50
[5] = system: HAP1 MTAP-deleted cell line; assay: Viability assay, MTAP-deleted cell line; assay type: cell-based; conditions: Homo sapiens, HAP1, viability assay, MTAP-deleted cell line; read-out: HAP1 MTAP deleted viability
Excerpt: Table 1 additionally indicates IC50 values in a viability assay for the MTAP-deleted cell line (column 10), indicating the effect of treatment with compound on cell survival.

[6] = system: HAP1 MTAP-deleted cell line; assay: SDMA in-cell western assay, HAP1 MTAP-deleted; assay type: cell-based; conditions: for IC50: Homo sapiens, HAP1, SDMA in-cell western, HAP1 MTAP-deleted, read-out: HAP1 MTAP deleted IC50; for MTAP intact/deleted ratio: IC50 ratio HAP1 MTAP-intact / HAP1 MTAP-deleted, SDMA in-cell western
Method in brief: as §1

T1 sequence (O14744 whole entry): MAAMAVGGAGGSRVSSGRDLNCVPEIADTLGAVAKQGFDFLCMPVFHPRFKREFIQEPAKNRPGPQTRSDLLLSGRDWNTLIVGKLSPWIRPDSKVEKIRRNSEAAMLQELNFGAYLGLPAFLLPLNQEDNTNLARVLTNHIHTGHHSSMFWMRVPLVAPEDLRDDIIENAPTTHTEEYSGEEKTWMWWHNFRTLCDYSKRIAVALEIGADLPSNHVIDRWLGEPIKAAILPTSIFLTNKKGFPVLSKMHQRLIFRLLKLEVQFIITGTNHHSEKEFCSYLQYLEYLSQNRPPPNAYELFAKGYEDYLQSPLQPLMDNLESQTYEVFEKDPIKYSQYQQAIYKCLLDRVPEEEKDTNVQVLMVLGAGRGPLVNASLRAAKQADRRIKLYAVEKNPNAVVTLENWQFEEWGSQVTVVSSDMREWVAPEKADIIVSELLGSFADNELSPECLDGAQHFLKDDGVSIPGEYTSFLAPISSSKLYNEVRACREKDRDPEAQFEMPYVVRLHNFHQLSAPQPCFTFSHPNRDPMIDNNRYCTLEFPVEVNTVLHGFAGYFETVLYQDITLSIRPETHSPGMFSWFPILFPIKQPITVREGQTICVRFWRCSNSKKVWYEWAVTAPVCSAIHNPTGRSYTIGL
T1 sequence (Q9BQA1 whole entry partner): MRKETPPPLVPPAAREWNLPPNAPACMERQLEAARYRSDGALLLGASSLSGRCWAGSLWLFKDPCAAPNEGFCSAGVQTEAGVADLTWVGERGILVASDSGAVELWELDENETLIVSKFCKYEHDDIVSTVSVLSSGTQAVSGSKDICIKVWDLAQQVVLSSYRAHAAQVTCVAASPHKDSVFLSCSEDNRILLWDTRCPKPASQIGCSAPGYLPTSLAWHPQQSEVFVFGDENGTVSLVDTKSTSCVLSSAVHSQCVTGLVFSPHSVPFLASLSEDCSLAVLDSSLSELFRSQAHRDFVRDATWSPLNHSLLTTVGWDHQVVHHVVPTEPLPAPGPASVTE

| Compound | IC50 (PRMT5 [1]) [µM] | IC50 (PRMT5 [2]) [µM] | IC50 [3] [µM] | IC50 (PRMT5 [4]) [µM] | IC50 [6] [µM] | IC50 [5] [µM] | MTAP intact/deleted ratio [6] |
| --- | --- | --- | --- | --- | --- | --- | --- |
| C[C@@H]1CC[C@@H](c2ccccc2)N(C(=O)C(=O)Nc2cncc(C(N)=O)c2)[C@H]1C (racemic) [Compound 181, rac-5-[[2-[(2S,3R,6S)-2,3-dimethyl-6-phenyl-1-piperidyl]-2-oxo-acetyl]amino]pyridine-3-carboxamide] | 0.05 to 0.5 | < 0.05 | > 1 | 0.05 to 0.5 | 0.1 to 1 | 1 to 10 | A (an IC50 ratio greater than or equal to 10 fold) |
| NC(=O)c1cncc(NC(=O)C(=O)N2CC[C@@H](O)C[C@H]2c2ccccc2)c1 (racemic) [Compound 185, 5-(2-(4-hydroxy-2-phenylpiperidin-1-yl)-2-oxoacetamido)nicotinamide] | > 0.5 | 0.05 to 0.5 | > 1 | 0.05 to 0.5 | > 1 | > 10 | C (an IC50 ratio of less than 3 fold) |
| C[C@@H]1CC[C@@H](c2cc(Cl)cc(Cl)c2)N(C(=O)C(=O)Nc2cncc(C(N)=O)c2)C1 (racemic) [Compound 206, rac-5-{2-[(2R,5S)-2-(3,5-Dichlorophenyl)-5-methylpiperidin-1-yl]-2-oxoacetamido}pyridine-3-carboxamide] | 0.05 to 0.5 | < 0.05 | > 1 | 0.05 to 0.5 | 0.1 to 1 | 1 to 10 | A (an IC50 ratio greater than or equal to 10 fold) |
| COc1ccc([C@@H]2CC[C@@H](C)CN2C(=O)C(=O)Nc2cncc(C(N)=O)c2)cc1F (racemic) [Compound 208, rac-5-{2-[(2R,5S)-2-(3-Fluoro-4-methoxyphenyl)-5-methylpiperidin-1-yl]-2-oxoacetamido}pyridine-3-carboxamide] | 0.05 to 0.5 | < 0.05 | > 1 | 0.05 to 0.5 | 0.1 to 1 | 1 to 10 | A (an IC50 ratio greater than or equal to 10 fold) |
| CNc1ccc([C@@H]2CC[C@@H](C)CN2C(=O)C(=O)Nc2cncc(C(N)=O)c2)cn1 (racemic) [Compound 209, rac-5-{2-[(2R,5S)-5-Methyl-2-[6-(methylamino)pyridin-3-yl]piperidin-1-yl]-2-oxoacetamido}pyridine-3-carboxamide] | 0.05 to 0.5 | < 0.05 | > 1 | 0.05 to 0.5 | < 0.1 | 1 to 10 | A (an IC50 ratio greater than or equal to 10 fold) |
| C[C@@H]1CC[C@@H](c2ccc(Cl)cc2)N(C(=O)C(=O)Nc2cncc(C(N)=O)c2)C1 (racemic) [Compound 212, rac-5-[[2-[(2S,5R)-2-(4-chlorophenyl)-5-methyl-1-piperidyl]-2-oxo-acetyl]amino]pyridine-3-carboxamide] | 0.05 to 0.5 | < 0.05 | > 1 | 0.05 to 0.5 | < 0.1 | 1 to 10 | A (an IC50 ratio greater than or equal to 10 fold) |
| C[C@@H]1CC[C@@H](c2ccc(CN3CCOCC3)cc2)N(C(=O)C(=O)Nc2cncc(C(N)=O)c2)C1 (racemic) [Compound 213] | 0.05 to 0.5 | < 0.05 | > 1 | 0.05 to 0.5 | 0.1 to 1 | > 10 | A (an IC50 ratio greater than or equal to 10 fold) |
| COc1cccc([C@@H]2CC[C@@H](C)CN2C(=O)C(=O)Nc2cncc(C(N)=O)c2)c1 (racemic) [Compound 214, rac-5-{2-[(2R,5S)-2-(3-Methoxyphenyl)-5-methylpiperidin-1-yl]-2-oxoacetamido}pyridine-3-carboxamide] | 0.05 to 0.5 | < 0.05 | > 1 | 0.05 to 0.5 | < 0.1 | 1 to 10 | – |
| Cc1cccc2cc([C@@H]3CC[C@@H](C)CN3C(=O)C(=O)Nc3cncc(C(N)=O)c3)cnc12 (racemic) [Compound 215, rac-5-{2-[(2R,5S)-5-Methyl-2-(8-methylquinolin-3-yl)piperidin-1-yl]-2-oxoacetamido}pyridine-3-carboxamide] | > 0.5 | 0.05 to 0.5 | > 1 | > 0.5 | > 1 | > 10 | B (an IC50 ratio greater than or equal to 3 fold but lower than 10 fold) |
| Cc1cnn(-c2ccc([C@@H]3CC[C@@H](C)CN3C(=O)C(=O)Nc3cncc(C(N)=O)c3)cc2)c1 (racemic) [Compound 218, rac-5-{2-[(2R,5S)-5-Methyl-2-[4-(4-methyl-11H-pyrazol-1-yl)phenyl]piperidin-1-yl]-2-oxoacetamido}pyridine-3-carboxamide] | 0.05 to 0.5 | < 0.05 | > 1 | 0.05 to 0.5 | < 0.1 | 1 to 10 | A (an IC50 ratio greater than or equal to 10 fold) |

Further lines, with some results ahead:

| IC50 (PRMT5 [1]) [µM] | IC50 (PRMT5 [2]) [µM] | IC50 [3] [µM] | IC50 (PRMT5 [4]) [µM] | IC50 [6] [µM] | Compound | IC50 [5] [µM] | MTAP intact/deleted ratio [6] |
| --- | --- | --- | --- | --- | --- | --- | --- |
| 0.05 to 0.5 | < 0.05 | > 1 | 0.05 to 0.5 | 0.1 to 1 | CC(C)[C@@H]1CC[C@@H](C)CN1C(=O)C(=O)Nc1cncc(C(N)=O)c1 (racemic) [Compound 176, 5-[[2-[(2S,5R)-2-isopropyl-5-methyl-1-piperidyl]-2-oxo-acetyl]amino]pyridine-3-carboxamide] | > 10 | A (an IC50 ratio greater than or equal to 10 fold) |
| 0.05 to 0.5 | 0.05 to 0.5 | > 1 | 0.05 to 0.5 | > 1 | Cc1cc(NC(=O)C(=O)N2C[C@H](C(F)(F)F)CC[C@H]2c2ccccc2)cnc1N (racemic) [Compound 177, rac-N-(6-amino-5-methylpyridin-3-yl)-2-oxo-2-((2R,5S)-2-phenyl-5-(trifluoromethyl)piperidin-1-yl)acetamide] | > 10 | B (an IC50 ratio greater than or equal to 3 fold but lower than 10 fold) |
| 0.05 to 0.5 | < 0.05 | > 1 | 0.05 to 0.5 | < 0.1 | Cc1ccc([C@@H]2CC[C@@H](C)CN2C(=O)C(=O)Nc2cncc(C(N)=O)c2)cc1Cl (racemic) [Compound 179, rac-5-{2-[(2R,5S)-2-(3-Chloro-4-methylphenyl)-5-methylpiperidin-1-yl]-2-oxoacetamido}pyridine-3-carboxamide] | 1 to 10 | A (an IC50 ratio greater than or equal to 10 fold) |
| 0.05 to 0.5 | < 0.05 | > 1 | 0.05 to 0.5 | 0.1 to 1 | Cc1ccc([C@@H]2CC[C@@H](C)CN2C(=O)C(=O)Nc2cncc(C(N)=O)c2)cc1C (racemic) [Compound 180, rac-5-{2-[(2R,5S)-2-(3,4-Dimethylphenyl)-5-methylpiperidin-1-yl]-2-oxoacetamido}pyridine-3-carboxamide] | 1 to 10 | A (an IC50 ratio greater than or equal to 10 fold) |
| 0.05 to 0.5 | < 0.05 | 0.1 to 1 | 0.05 to 0.5 | < 0.1 | Cc1cc(NC(=O)C(=O)N2C[C@@H](C)CC[C@@H]2c2cccc(O)c2)cnc1N (racemic) [Compound 187, rac-N-(6-amino-5-methylpyridin-3-yl)-2-((2R,5S)-2-(3-hydroxyphenyl)-5-methylpiperidin-1-yl)-2-oxoacetamide] | 1 to 10 | A (an IC50 ratio greater than or equal to 10 fold) |
| 0.05 to 0.5 | < 0.05 | > 1 | 0.05 to 0.5 | 0.1 to 1 | Cc1cc(NC(=O)C(=O)N2C[C@H](C)CC[C@H]2C2CCCC2)cnc1N (racemic) [Compound 190, N-(6-amino-5-methyl-3-pyridyl)-2-[(2S,5R)-2-cyclopentyl-5-methyl-1-piperidyl]-2-oxo-acetamide] | 1 to 10 | B (an IC50 ratio greater than or equal to 3 fold but lower than 10 fold) |
| 0.05 to 0.5 | 0.05 to 0.5 | > 1 | > 0.5 | 0.1 to 1 | C[C@@H]1CC[C@@H](c2ccc(N3CCCC3)nc2)N(C(=O)C(=O)Nc2cncc(C(N)=O)c2)C1 (racemic) [Compound 207, rac-5-{2-[(2R,5S)-5-methyl-2-[6-(pyrrolidin-1-yl)pyridin-3-yl]piperidin-1-yl]-2-oxoacetamido}pyridine-3-carboxamide] | 1 to 10 | A (an IC50 ratio greater than or equal to 10 fold) |
